Results from the supplement of paper PMC10307832.

Columns and labels:
Test in all cases: relative viability (nuclei count vs DMSO), 5 days (fraction); higher = more cells survive
ALW-II-49-7 + Luminespib = compound: Cc1ccc(C(=O)Nc2cccc(C(F)(F)F)c2)cc1Nc1cncc(C(N)=O)c1 [ALW-II-49-7] + CCNC(=O)c1noc(-c2cc(C(C)C)c(O)cc2O)c1-c1ccc(CN2CCOCC2)cc1 [Luminespib] (partner 0.01 µM)
Procedure, shortened: (§1)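 Lung cancer cell lines in 1536-well plates got either a single drug or a fixed anchor-drug dose together with five library-drug doses (not always all listed) in √10 steps, by pin tool, on the day after seeding. Nuclei were counted after 5 days, and relative viability is the treated-to-vehicle ratio of nuclei counts. Values are medians of duplicate plates.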

ALW-II-49-7 + Tozasertib = compound: Cc1ccc(C(=O)Nc2cccc(C(F)(F)F)c2)cc1Nc1cncc(C(N)=O)c1 [ALW-II-49-7] + Cc1cc(Nc2cc(N3CCN(C)CC3)nc(Sc3ccc(NC(=O)C4CC4)cc3)n2)n[nH]1 [Tozasertib] (partner 0.1 µM)
Procedure, shortened: as §1

Dasatinib + Bortezomib = compound: Cc1nc(Nc2ncc(C(=O)Nc3c(C)cccc3Cl)s2)cc(N2CCN(CCO)CC2)n1 [Dasatinib] + CC(C)C[C@H](NC(=O)[C@H](Cc1ccccc1)NC(=O)c1cnccn1)B(O)O [Bortezomib] (partner 0.002 µM)
Procedure, shortened: as §1

Dasatinib + Linsitinib = compound: Cc1nc(Nc2ncc(C(=O)Nc3c(C)cccc3Cl)s2)cc(N2CCN(CCO)CC2)n1 [Dasatinib] + C[C@]1(O)C[C@@H](c2nc(-c3ccc4ccc(-c5ccccc5)nc4c3)c3c(N)nccn32)C1 [Linsitinib] (partner 1 µM)
Procedure, shortened: as §1

UMC-11 was tested, and the relative viability (ALW-II-49-7 + Luminespib; first compound 0.08 µM) was 1.19, the relative viability (ALW-II-49-7 + Luminespib; first compound 0.253 µM) was 0.939 and the relative viability (ALW-II-49-7 + Luminespib; first compound 0.8 µM) was 1.14. The relative viability (ALW-II-49-7 + Luminespib; first compound 2.53 µM) was 0.983, the relative viability (ALW-II-49-7 + Luminespib; first compound 8 µM) was 1 and the relative viability (ALW-II-49-7 + Tozasertib; first compound 0.08 µM) was 0.193. It also gave a relative viability (ALW-II-49-7 + Tozasertib; first compound 0.253 µM) of 0.202, a relative viability (ALW-II-49-7 + Tozasertib; first compound 0.8 µM) of 0.21 and a relative viability (ALW-II-49-7 + Tozasertib; first compound 2.53 µM) of 0.186. For the same cell line, the relative viability (ALW-II-49-7 + Tozasertib; first compound 8 µM) was 0.217, the relative viability (Dasatinib + Bortezomib; first compound 0.005 µM) was 0.668 and the relative viability (Dasatinib + Bortezomib; first compound 0.01581 µM) was 0.688. For the same cell line, the relative viability (Dasatinib + Bortezomib; first compound 0.05 µM) was 0.806, the relative viability (Dasatinib + Bortezomib; first compound 0.1581 µM) was 0.313 and the relative viability (Dasatinib + Bortezomib; first compound 0.5 µM) was 0.291. For the same cell line, the relative viability (Dasatinib + Linsitinib; first compound 0.005 µM) was 0.911, the relative viability (Dasatinib + Linsitinib; first compound 0.01581 µM) was 0.827 and the relative viability (Dasatinib + Linsitinib; first compound 0.05 µM) was 0.543. The relative viability (Dasatinib + Linsitinib; first compound 0.1581 µM) was 0.342 and the relative viability (Dasatinib + Linsitinib; first compound 0.5 µM) was 0.319.
